Source: US7863438B2 (Yamasa Corporation, priority 2005, dated 2011)
Counter-ions that a name gives are not always drawn. Like-named read-outs stand apart in the source and are kept apart here.

Experiments:
[1] = Ambient-temperature stability of PAPS lithium salt in aqueous solution or in the form of powder (HPLC determination of PAPS)
Experimental: ODS-[…] column (product of YMC) • Eluent: 50 mM Aqueous potassium dihydrogenphosphate solution • Flow rate: 0.6 mL/minute • Detection: Absorbance (A) at 270 nm • Temperature: 20° C. The present invention will next be specifically described in detail with reference to Referential Example and Example. However, it will be understood that the present invention is not limited to the Example. Quantitative determination of PAPS was performed under the aforementioned HPLC conditions. Ambient-temperature stability of a PAPS lithium salt (product of Calbiochem) was evaluated in an aqueous solution or in the form of powder as follows. […] As used herein, “percent undecomposed” or “percentage of undecomposed PAPS” is the ratio of the remaining amount of PAPS to the initial amount thereof.

[2] = powder 10 mg, desiccator (relative humidity: 10%), ambient temperature (23±2° C.), seven days

Nc1ncnc2c1ncn2[C@@H]1O[C@H](COP(=O)(O)OS(=O)(=O)O)[C@@H](OP(=O)(O)O)[C@H]1O [Ammonium salt, 3′-phosphoadenosine 5′-phosphosulfate]
Undecomposed PAPS (%) [2]: 4.1%

Nc1ncnc2c1ncn2[C@@H]1O[C@H](COP(=O)(O)OS(=O)(=O)O)[C@@H](OP(=O)(O)O)[C@H]1O [Diethylamine salt, 3′-phosphoadenosine 5′-phosphosulfate]
Undecomposed PAPS (%) [2]: 96%

Nc1ncnc2c1ncn2[C@@H]1O[C@H](COP(=O)(O)OS(=O)(=O)O)[C@@H](OP(=O)(O)O)[C@H]1O [Ethanolamine salt, 3′-phosphoadenosine 5′-phosphosulfate]
Undecomposed PAPS (%) [2]: 13%

Nc1ncnc2c1ncn2[C@@H]1O[C@H](COP(=O)(O)OS(=O)(=O)O)[C@@H](OP(=O)(O)O)[C@H]1O [Ethylamine salt, 3′-phosphoadenosine 5′-phosphosulfate]
Undecomposed PAPS (%): 48%

Nc1ncnc2c1ncn2[C@@H]1O[C@H](COP(=O)(O)OS(=O)(=O)O)[C@@H](OP(=O)(O)O)[C@H]1O [Imidazole salt, 3′-phosphoadenosine 5′-phosphosulfate]
Undecomposed PAPS (%) [2]: 2.9%

Nc1ncnc2c1ncn2[C@@H]1O[C@H](COP(=O)(O)OS(=O)(=O)O)[C@@H](OP(=O)(O)O)[C@H]1O [L-Arginine salt, 3′-phosphoadenosine 5′-phosphosulfate]
Undecomposed PAPS (%): 57%

Nc1ncnc2c1ncn2[C@@H]1O[C@H](COP(=O)(O)OS(=O)(=O)O)[C@@H](OP(=O)(O)O)[C@H]1O [L-Histidine salt, 3′-phosphoadenosine 5′-phosphosulfate]
Undecomposed PAPS (%) [2]: 98%

Nc1ncnc2c1ncn2[C@@H]1O[C@H](COP(=O)(O)OS(=O)(=O)O)[C@@H](OP(=O)(O)O)[C@H]1O [L-Lysine salt, 3′-phosphoadenosine 5′-phosphosulfate]
Undecomposed PAPS (%): 27%

Nc1ncnc2c1ncn2[C@@H]1O[C@H](COP(=O)(O)OS(=O)(=O)O)[C@@H](OP(=O)(O)O)[C@H]1O [Lithium salt, 3′-phosphoadenosine 5′-phosphosulfate]
Undecomposed of PAPS (%) ([1]; aqueous solution 10 mg/mL, standing still at 4° C. for seven days): >99% | Undecomposed of PAPS (%) ([1]; aqueous solution 10 mg/mL, standing still at 23° C. for seven days): 96% | stability in aqueous solution (in words) ([1]; aqueous solution, seven days): relatively stable | Undecomposed of PAPS (%) ([1]; powder (10 mg), standing still at 4° C. for seven days): 89% | Undecomposed of PAPS (%) ([1]; powder (10 mg), standing still at 23° C. for seven days): 65% | decomposed (%) ([1]; powder, ambient temperature, seven days): 35% | stability in the form of powder (in words) ([1]; powder, seven days): very unstable | Undecomposed PAPS (%) [2]: 65%

Nc1ncnc2c1ncn2[C@@H]1O[C@H](COP(=O)(O)OS(=O)(=O)O)[C@@H](OP(=O)(O)O)[C@H]1O [Piperidine salt, 3′-phosphoadenosine 5′-phosphosulfate]
Undecomposed PAPS (%): 92%

Nc1ncnc2c1ncn2[C@@H]1O[C@H](COP(=O)(O)OS(=O)(=O)O)[C@@H](OP(=O)(O)O)[C@H]1O [Polyethyleneimine salt, 3′-phosphoadenosine 5′-phosphosulfate]
Undecomposed PAPS (%) [2]: 94%

Nc1ncnc2c1ncn2[C@@H]1O[C@H](COP(=O)(O)OS(=O)(=O)O)[C@@H](OP(=O)(O)O)[C@H]1O [Potassium salt, 3′-phosphoadenosine 5′-phosphosulfate]
Undecomposed PAPS (%) [2]: 22%

Nc1ncnc2c1ncn2[C@@H]1O[C@H](COP(=O)(O)OS(=O)(=O)O)[C@@H](OP(=O)(O)O)[C@H]1O [Putrescine salt, 3′-phosphoadenosine 5′-phosphosulfate]
Undecomposed PAPS (%) [2]: 80%

Nc1ncnc2c1ncn2[C@@H]1O[C@H](COP(=O)(O)OS(=O)(=O)O)[C@@H](OP(=O)(O)O)[C@H]1O [Sodium salt, 3′-phosphoadenosine 5′-phosphosulfate]
Undecomposed PAPS (%) [2]: 64%

Nc1ncnc2c1ncn2[C@@H]1O[C@H](COP(=O)(O)OS(=O)(=O)O)[C@@H](OP(=O)(O)O)[C@H]1O [Triethylamine salt, 3′-phosphoadenosine 5′-phosphosulfate]
Undecomposed PAPS (%) [2]: 100%

Nc1ncnc2c1ncn2[C@@H]1O[C@H](COP(=O)(O)OS(=O)(=O)O)[C@@H](OP(=O)(O)O)[C@H]1O [Trimethylamine salt, 3′-phosphoadenosine 5′-phosphosulfate]
Undecomposed PAPS (%): 89%
